In the experiment the target is T1, BTLA/HVEM complex (Homo sapiens, UniProt Q92956).
T1 construct: purchased ACROBiosystems HVM-H52E9 (HVEM-His); BTA-H5255 (BTLA-Fc)
T1 sequence (Q92956 39-202 limits assumed): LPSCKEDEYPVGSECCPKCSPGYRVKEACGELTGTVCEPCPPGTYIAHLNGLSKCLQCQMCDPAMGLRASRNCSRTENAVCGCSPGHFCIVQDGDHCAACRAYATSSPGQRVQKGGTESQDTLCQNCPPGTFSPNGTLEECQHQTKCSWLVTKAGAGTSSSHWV
The experiment is described as follows: ELISA inhibition of BTLA/HVEM complex formation. The format is biochemical. Conditions: immobilized HVEM-His, BTLA-Fc 5 μg/mL, PBS-T, 37 °C, mean of three independent experiments; for inhibition at 16.67 µM: peptide 16.67 μM; for inhibition at 50 µM: peptide 50 μM; for inhibition at 150 µM: peptide 150 μM. The protocol:
In the subsequent stage of the study, the potential of the obtained compounds to inhibit the interaction between BTLA and HVEM proteins was evaluated using ELISA, following the methodology described in our previous studies. , HVEM was immobilized on the plate and incubated with peptides at three different concentrations, followed by the addition of Fc-tagged BTLA. Detection was carried out using horseradish peroxidase (HRP) conjugated with anti-human IgG and 3,3′,5,5′-tetramethylbenzidine (TMB) as a substrate. Signal intensity was directly proportional to the amount of BTLA bound to HVEM and inversely proportional to the inhibitory activity of the tested peptides. As a control, BTLA and HVEM were incubated in the absence of peptides.
Recombinant human HVEM protein with a His tag was purchased from ACROBiosystems, Newark, DE, USA (no. HVM-H52E9). Recombinant human protein BTLA-Fc and LIGHT-Fc were also purchased from ACROBiosystems, Newark, DE, USA (no. BTA-H5255 and no. LIT-H5269).
ELISA was performed using transparent 96-well NUNC Maxisorp plates (Thermo Fisher Scientific, Waltham, MA, USA). In the first step, HVEM-His, dissolved in PBS at a concentration of 5 μg/mL (100 μL/well), was immobilized on the plate by overnight incubation at 4 °C. Wells were then blocked with 5% bovine serum albumin (BSA) in PBS containing 0.05% Tween 20 (PBS-T) (200 μL/well). Next, peptides dissolved in PBS-T at concentrations of 150, 50, and 16.67 μM were added to the wells (100 μL/well). Following this, BTLA-Fc in PBS-T at a concentration of 5 μg/mL (100 μL/well) was applied. In the next step, goat anti-human IgG antibody conjugated with the HRP (Bio-Rad Laboratories, Hercules, CA, USA) in PBS-T at a ratio of 1:30,000 (v/v) was added (100 μL/well). Colorimetric detection was performed by adding 100 μL of TMB substrate (Thermo Fisher Scientific, Waltham, MA, USA) to each well and incubating the plate in the dark. At each stage, plates were incubated at 37 °C with continuous shaking for 1 h (except TMB, which was incubated for 15 min). After each incubation, wells were washed five times with PBS-T. Absorbance was measured using an Infinite M200 Pro Reader (Tecan Group Ltd., Männedorf, Switzerland) at wavelengths of 650 nm (measurement wavelength) and 492 nm (reference wavelength). Inhibition assays for the HVEM/LIGHT complex were conducted using the same approach, except that LIGHT was used instead of BTLA. The BTLA/HVEM and HVEM/LIGHT complexes without peptides served as controls. Inhibition percentages were calculated based on the assumption that PBS-T has no effect on the formation of BTLA/HVEM or HVEM/LIGHT complexes. Each ELISA was conducted in at least three independent replicates. The data were analyzed using GraphPad Prism 8 software (San Diego, CA, USA).
(In general: ELISA stands for enzyme-linked immunosorbent assay.)

The structures appear in SMILES notation. Where a SMILES comes first, the peptide text is derived from it.

By inhibition is commonly meant the relative decrease from the control value, in per cent.

Regarding `CC[C@H](NC(=O)[C@H](CCC(N)=O)NC(=O)[C@H](Cc1ccc(O)cc1)NC(C)=O)C(=O)N[C@H]1CSSC[C@@H](C(=O)NCC(=O)N[C@@H](Cc2c[nH]cn2)C(=O)N[C@@H](Cc2ccccc2)C(=O)N[C@@H](Cc2ccccc2)C(N)=O)NC(=O)[C@H](CC(C)C)NC(=O)[C@H](CCCNC(=N)N)NC(=O)[C@H]([C@@H](C)CC)NC(=O)CNC(=O)[C@H](CO)NC(=O)[C@H](CCCCN)NC(=O)[C@H](CCC(N)=O)NC(=O)[C@H](CO)NC(=O)[C@H](CCCNC(=N)N)NC(=O)[C@H](C)NC1=O` [A3, CD160(110–128)^(C112X,Q124C)] (HELM PEPTIDE1{[ac].Y.Q.[Abu].C.A.R.S.Q.K.S.G.I.R.L.C.G.H.F.F.[am]}$PEPTIDE1,PEPTIDE1,5:R3-16:R3$$$V2.0), the inhibition at 16.67 µM was -0.96%, the inhibition at 50 µM is -0.72% and the inhibition at 150 µM was found to be 3.85%.
The like results for `CC[C@@H]1NC(=O)[C@H](CC(C)C)NC(=O)[C@@H](NC(=O)[C@@H](NC(=O)[C@@H](NC(=O)[C@H](Cc2ccccc2)NC(C)=O)C(C)C)C(C)C)CSSC[C@@H](C(=O)N[C@@H](CC(C)C)C(=O)N[C@@H](CCCNC(=N)N)C(=O)N[C@@H](CC(C)C)C(N)=O)NC(=O)[C@H](CCCCN)NC(=O)[C@H](CC(C)C)NC(=O)[C@H](CO)NC(=O)[C@H]([C@@H](C)O)NC(=O)[C@H](CCC(=O)O)NC(=O)[C@@H]2CCCN2C(=O)[C@H](CO)NC(=O)[C@H](CC)NC(=O)[C@H](CC(=O)O)NC(=O)CNC(=O)[C@H](CO)NC(=O)[C@H](CCCNC(=N)N)NC(=O)[C@H](CC(=O)O)NC(=O)[C@H](CCCCN)NC1=O` [B4, CD160(56–79)^(F59C,C61X,C68X,Q76C)] (HELM PEPTIDE1{[ac].F.V.V.C.L.[Abu].K.D.R.S.G.D.[Abu].S.P.E.T.S.L.K.C.L.R.L.[am]}$PEPTIDE1,PEPTIDE1,5:R3-22:R3$$$V2.0) were, in that order, -4.42%, 0.29% and 9.93%.
As to `CC[C@H](NC(=O)[C@H](CC(C)C)NC(=O)[C@H](Cc1ccccc1)NC(=O)[C@@H](NC(=O)[C@@H](NC(=O)[C@H](Cc1ccccc1)NC(C)=O)C(C)C)C(C)C)C(=O)N[C@@H](CCCCN)C(=O)N[C@@H](CC(=O)O)C(=O)N[C@@H](CCCNC(=N)N)C(=O)N[C@@H](CO)C(=O)NCC(=O)N[C@@H](CC(=O)O)C(=O)N[C@@H](CC)C(=O)N[C@@H](CO)C(=O)N1CCC[C@H]1C(=O)N[C@@H](CCC(=O)O)C(=O)N[C@H](C(=O)N[C@@H](CO)C(=O)N[C@@H](CC(C)C)C(=O)N[C@@H](CCCCN)C(=O)N[C@@H](CCC(N)=O)C(=O)N[C@@H](CC(C)C)C(=O)N[C@@H](CCCNC(=N)N)C(=O)N[C@@H](CC(C)C)C(N)=O)[C@@H](C)O` [B1, CD160(56–79)^(C61X,C68X)] (HELM PEPTIDE1{[ac].F.V.V.F.L.[Abu].K.D.R.S.G.D.[Abu].S.P.E.T.S.L.K.Q.L.R.L.[am]}$$$$V2.0), the inhibition at 16.67 µM worked out at 1.49% and the inhibition at 50 µM came out at 4.68%.
As for `CC[C@@H]1NC(=O)[C@@H](NC(=O)[C@H](Cc2ccccc2)NC(=O)[C@@H](NC(=O)[C@@H](NC(=O)[C@H](Cc2ccccc2)NC(C)=O)C(C)C)C(C)C)CSSC[C@@H](C(=O)N[C@@H](CCCCN)C(=O)N[C@@H](CCC(N)=O)C(=O)N[C@@H](CC(C)C)C(=O)N[C@@H](CCCNC(=N)N)C(=O)N[C@@H](CC(C)C)C(N)=O)NC(=O)[C@H](CO)NC(=O)[C@H]([C@@H](C)O)NC(=O)[C@H](CCC(=O)O)NC(=O)[C@@H]2CCCN2C(=O)[C@H](CO)NC(=O)[C@H](CC)NC(=O)[C@H](CC(=O)O)NC(=O)CNC(=O)[C@H](CO)NC(=O)[C@H](CCCNC(=N)N)NC(=O)[C@H](CC(=O)O)NC(=O)[C@H](CCCCN)NC1=O` [B3, CD160(56–79) ^(L60C,C61X,C68X,L74C)] (HELM PEPTIDE1{[ac].F.V.V.F.C.[Abu].K.D.R.S.G.D.[Abu].S.P.E.T.S.C.K.Q.L.R.L.[am]}$PEPTIDE1,PEPTIDE1,6:R3-20:R3$$$V2.0), the inhibition at 16.67 µM was -4.44%, the inhibition at 50 µM was -5.5% and the inhibition at 150 µM was -4.74%.
On to `CC[C@H](NC(=O)[C@H](CC(C)C)NC(=O)[C@H](Cc1ccccc1)NC(C)=O)C(=O)N[C@@H](CCCCN)C(=O)N[C@@H](CC(=O)O)C(=O)N[C@@H](CCCNC(=N)N)C(=O)N[C@@H](CO)C(=O)NCC(=O)N[C@@H](CC(=O)O)C(=O)N[C@@H](CC)C(=O)N[C@@H](CO)C(=O)N1CCC[C@H]1C(=O)N[C@@H](CCC(=O)O)C(=O)N[C@H](C(=O)N[C@@H](CO)C(=O)N[C@@H](CC(C)C)C(=O)N[C@@H](CCCCN)C(N)=O)[C@@H](C)O` [C1, CD160(59–75)^(C61X,C68X)] (HELM PEPTIDE1{[ac].F.L.[Abu].K.D.R.S.G.D.[Abu].S.P.E.T.S.L.K.[am]}$$$$V2.0), for which the inhibition at 16.67 µM was 4.03%, the inhibition at 50 µM worked out at 2.63% and the inhibition at 150 µM amounted to 1.99%.
On to `CC[C@H](NC(=O)[C@H](CCC(N)=O)NC(=O)[C@H](Cc1ccc(O)cc1)NC(C)=O)C(=O)N[C@@H](CC)C(=O)N[C@H]1CSSC[C@@H](C(=O)N[C@@H](CCC(N)=O)C(=O)NCC(=O)N[C@@H](Cc2c[nH]cn2)C(=O)N[C@@H](Cc2ccccc2)C(=O)N[C@@H](Cc2ccccc2)C(N)=O)NC(=O)[C@H](CCCNC(=N)N)NC(=O)[C@H]([C@@H](C)CC)NC(=O)CNC(=O)[C@H](CO)NC(=O)[C@H](CCCCN)NC(=O)[C@H](CCC(N)=O)NC(=O)[C@H](CO)NC(=O)[C@H](CCCNC(=N)N)NC1=O` [A4, CD160(110–128)^(C112X,C113X,A114C,L123C)] (HELM PEPTIDE1{[ac].Y.Q.[Abu].[Abu].C.R.S.Q.K.S.G.I.R.C.Q.G.H.F.F.[am]}$PEPTIDE1,PEPTIDE1,6:R3-15:R3$$$V2.0), for which the inhibition at 16.67 µM is -2.23%, the inhibition at 50 µM is -0.34% and the inhibition at 150 µM is -1.77%.
The like results for `CC[C@H](NC(=O)[C@H](CC)NC(=O)[C@H](CCC(N)=O)NC(=O)[C@H](Cc1ccc(O)cc1)NC(C)=O)C(=O)N[C@@H](C)C(=O)N[C@@H](CCCNC(=N)N)C(=O)N[C@@H](CO)C(=O)N[C@@H](CCC(N)=O)C(=O)N[C@@H](CCCCN)C(=O)N[C@@H](CO)C(=O)NCC(=O)N[C@H](C(=O)N[C@@H](CCCNC(=N)N)C(=O)N[C@@H](CC(C)C)C(=O)N[C@@H](CCC(N)=O)C(=O)NCC(=O)N[C@@H](Cc1c[nH]cn1)C(=O)N[C@@H](Cc1ccccc1)C(=O)N[C@@H](Cc1ccccc1)C(N)=O)[C@@H](C)CC` [A1, CD160(110–128)^(C112X,C113X)] (HELM PEPTIDE1{[ac].Y.Q.[Abu].[Abu].A.R.S.Q.K.S.G.I.R.L.Q.G.H.F.F.[am]}$$$$V2.0) were, in that order, 4.31%, 6.28% and 7.44%.
The matching figures for `CC[C@@H]1NC(=O)[C@@H](NC(=O)[C@H](Cc2ccccc2)NC(C)=O)CSSC[C@@H](C(=O)N[C@@H](CCCCN)C(N)=O)NC(=O)[C@H](CO)NC(=O)[C@H]([C@@H](C)O)NC(=O)[C@H](CCC(=O)O)NC(=O)[C@@H]2CCCN2C(=O)[C@H](CO)NC(=O)[C@H](CC)NC(=O)[C@H](CC(=O)O)NC(=O)CNC(=O)[C@H](CO)NC(=O)[C@H](CCCNC(=N)N)NC(=O)[C@H](CC(=O)O)NC(=O)[C@H](CCCCN)NC1=O` [C2, CD160(59–75)^(L60C,C61X,L74C)] (HELM PEPTIDE1{[ac].F.C.[Abu].K.D.R.S.G.D.[Abu].S.P.E.T.S.C.K.[am]}$PEPTIDE1,PEPTIDE1,3:R3-17:R3$$$V2.0): -0.94%, 1% and 0.77%.

The values are drawn from paper PMC12714101, “CD160-Derived Peptide as a Bidirectional Inhibitor Toward Immune Checkpoints BTLA/HVEM and HVEM/LIGHT” (Journal of Medicinal Chemistry, 2025).
